A word on the Ki: it is a measure of affinity in units of concentration, obtained from inhibition or displacement. Read a low Ki as higher affinity.

This test can be described thus: Displacement of [3H-20]-phorbol-12-13-dibutyrate from protein kinase C (alpha, beta, gamma) of mouse brain. The test is classed as tissue-based.
`CCCCCCCCCCCCCC(=O)O[C@@H]1CCC(=O)O[C@H]1CO` yielded a Ki of 2.8 µM.
The molecule `CCCCCCCCCCCCC/C=C1\C(=O)O[C@@H](CO)[C@@H]1OC(C)=O` had a Ki of 0.2 µM.
On to `CCCCCCCCCCCCC/C=C1/C(=O)O[C@@H](CO)[C@@H]1OC(C)=O`, for which the inhibition constant Ki stood at 0.6 µM. This Ki is about 3-fold higher than that of the molecule before.
For `CCCCCCCCCCCCCC(=O)O[C@@H]1CC(=O)O[C@H]1CO`, the Ki turned out to be 2.5 µM.

Source of the values: ChEMBL document CHEMBL1127998, “Conformationally constrained analogues of diacylglycerol. 9.1 the effect of side-chain orientation on the protein kinase C (PK-C) binding affinity of -lactones” (Bioorg Med Chem Lett, 1994).
